Where “and” joins values, the source holds several entries; their conditions need not be identical. Equal entries are not always repeated.
Experiment: Study 1: single-dose cross-over PK, oral vs intracolonic Na.MPA
Format: in vivo, male beagle dogs
Settings: for dose-normalized AUClast MPA: fasted, average
Protocol: Two single dose cross-over studies were conducted using a canine model (male beagle dogs) to evaluate the potential of an enteric coated-extended release sodium mycophenolate formulation (“EC-ER-Na.MP”). In a first cross-over study, the pharmacokinetics of MPA and its metabolites (MPAG and AcMPAG) following oral dosing of 180 mg of EC-Na.MPA was compared with intracolonic (IC) administration of Na.MPA. In a second cross-over study, 270 mg of an EC-ER-Na.MPA formulation was administered in the both fed and fasted states and pharmacokinetics were compared with oral administration of 10 mg/kg MMF in the fasted state. Both studies were conducted by Absorption Systems (San Diego, CA).
Study 1: For three days prior to IC dosing, dogs (n=5) were offered a soft diet consisting of canned wet food (Pedigree® Choice Cuts). Otherwise, the dogs were offered their standard diet (LabDiet 5006 laboratory canine diet). Prior to each dosing event, the dogs were fasted for 12 hours prior to dosing until 4 hours post-dose, when food was returned. Animals had free access to water throughout the study. Prior to IC dosing, each dog was given a non-stimulant enema approximately 1 hour prior to dosing to remove feces from the colon. Prior to PO dosing, each dog (n=5) was pre-treated with an intramuscular dose of pentagastrin (6 μg/kg) approximately 30 minutes prior to dosing. Capsules were administered by placement in the back of the throat followed by a 10 mL flush with water.
Each dog received a total dose of 180 mg of MPA for each dose. For IC dosing, MPA was delivered as a solution via an endoscope, and for PO dosing each dog received a single Myfortic® 180 mg enteric coated capsule. Following administration, blood samples were collected up to 24 hours post-dose. Plasma concentrations of MPA, MPAG, and AcMPAG were determined with a qualified LC-MS/MS method, and pharmacokinetic parameters were determined with WinNonlin v.6.4 software.

systemic exposure to MPA following IC and PO dosing (based on average values): similar
SMILES: COc1c(C)c2c(c(O)c1C/C=C(\C)CCC(=O)O)C(=O)OC2 [MPA, Mycophenolic acid]
dose-normalized AUClast MPA (IC 180 mg/dog): 1817 ± 925 kg·ng·h/mL/mg and 1817 kg·ng·h/mL/mg
dose-normalized AUClast MPA (PO 180 mg/dog): 2234 ± 799 kg·ng·h/mL/mg and 2234 kg·ng·h/mL/mg
rate of MPA absorption, IC in comparison to PO dose (dog, in vivo, po): more rapidly absorbed following IC dosing

— patent US20250049753A1, “METHODS AND COMPOSITIONS FOR DELIVERING MYCOPHENOLIC ACID ACTIVE AGENTS TO NON-HUMAN MAMMALS” (Okava Pharmaceuticals, Inc., priority 2017, published 2025)
